Biological target: human GPR120 (Homo sapiens (Human), UniProt Q5NUL3)
Assay: GPR120 pERK AlphaScreen SureFire Assay (human GPR120 pERK assay)
Type: cell-based
Settings: CHO cells stably transfected with short form of human GPR120
From the text: GPR120 activity was monitored by measuring phosphorylation of ERK (pERK), since G protein receptors are known to activate the ERK signaling cascade either directly and/or through recruitment of arrestin that serves as a scaffold for downstream signaling events.
GPR120 pERK AlphaScreen SureFire Assay
The human and mouse GPR120-mediated intracellular phosphorylated ERK assays were established using CHOA12 cells stably transfected with the short form of human or mouse GPR120 receptor. Cells were cultured in growth medium consisting of F-12 media (Invitrogen Cat. #11765) with 5% Charcoal/Dextran FBS (Invitrogen Cat. #12676-029), 500 μg/mL GENETICIN® (Life Technologies Cat. #10131-027) and 250 μg/mL Zeocin (Invitrogen Cat. #R250-01). Cells were cryo-preserved at a concentration of 2×10^7 cells/mL, in 90% Charcoal/Dextran FBS and 10% DMSO, and frozen in liquid nitrogen at a low passage number.
For the pERK assay, 2×10^7 cells/mL cryopreserved human and mouse cells were thawed rapidly in a 37° C. water bath and added to a T-225 flask containing 50 mL growth medium. The flasks were placed in a tissue culture incubator overnight (37° C., 5% CO2). The next day, cells were harvested with trypsin (Gibco Cat. #25300-054), resuspended in serum-containing growth medium and counted using a Cellometer and volume adjusted to a concentration of 0.6×10^6 cells/mL. Cells were plated into 384-well clear bottom tissue culture plates (BD Cat. #353962) at 50 μL/well, for a density of 30,000 cells/well using a MULTIDROP® and incubated for 16-18 hours (overnight) at 37° C. with 5% CO2. The next day, cells were serum starved in 30 μL of F-12 media without any serum or antibiotics for 2 hours at 37° C.
Test compounds were 3-fold, 11-point serially diluted in DMSO in a REMP assay plate (Matrix Cat. #4307) by Tecan and 5 μL was transferred into an ECHO source plate (Labcyte Cat. #LC-0200). Cells were then stimulated with 50 nL of compound dilutions using ECHO liquid handler for 7 min at 37° C. Compounds ranged from final assay concentrations of 33.33 μM to 0.56 nM.
The media was then dumped and cells lysed with 20 μL of 1× Lysis buffer from the AlphaScreen SureFire Phospho-ERK 1/2 Kit (Perkin Elmer Cat. #6760617M). The lysis buffer was diluted 5-fold with water before use. The plate was agitated on a shaker for 10 min after which 2 μL was transferred into a 384-well white proxiplate (Perkin Elmer Cat. #6008289). The SureFire assay reagent mix was prepared by mixing 60 parts Reaction Buffer, 10 parts Activation Buffer, 1 part Donor Beads, 1 part Acceptor Beads (Perkin Elmer Cat. #TGRES10K). 3.5 μL/well of this reagent mix was manually added to the proxiplate with a multichannel pipettor. Plates were spun down at 1000 rpm for 2 min, followed by light-protected incubation at room temperature for 2 hours. The plates were read on the Alpha-technology compatible Envision multilabel plate reader using AlphaScreen protocol according to manufacturer's specifications. The agonist effect of compounds was expressed as 100×(average sample-average blank)/(average total-average blank) where sample is the luminescence activity in the presence of test compound, blank is equal to the luminescence activity in the presence of DMSO control and the total is signal induced by 50 μM linolenic acid as reference compound. Activation data for the test compound over a range of concentrations was plotted as percentage activation of the test compound (100%=maximum response). After correcting for background, EC50 values were determined. The EC50 is defined as the concentration of test compound which produces 50% of the maximal response and was quantified using the 4 parameter logistic equation to fit the data.
The human and mouse GPR120-mediated intracellular phosphorylated ERK assays were also established using CHO-K1 cells stably transfected with the short form of human or mouse GPR120 receptor. […]

human GPR120, sequence (Q5NUL3 whole entry): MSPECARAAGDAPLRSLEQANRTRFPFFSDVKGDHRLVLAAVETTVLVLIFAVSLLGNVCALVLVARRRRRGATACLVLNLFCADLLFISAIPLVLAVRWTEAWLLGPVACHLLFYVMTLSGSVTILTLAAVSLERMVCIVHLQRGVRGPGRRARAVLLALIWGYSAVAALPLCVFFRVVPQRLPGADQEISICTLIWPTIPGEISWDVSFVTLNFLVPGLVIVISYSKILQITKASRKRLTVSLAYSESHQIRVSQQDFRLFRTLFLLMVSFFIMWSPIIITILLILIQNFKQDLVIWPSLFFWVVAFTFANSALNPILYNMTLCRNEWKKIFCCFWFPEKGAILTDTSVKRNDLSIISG

Row | Structure (SMILES) | EC50 [nM] | EC50 (μM)
1 | CC(C)Oc1ccc(F)c(-c2ccc(CC[C@]3(F)C[C@@H]3C(=O)O)cc2)c1 (racemic) [Example 40, Trans-2-fluoro-2-(2-(2′-fluoro-5′-isopropoxy-[1,1′-biphenyl]-4-yl)ethyl) cyclopropanecarboxylic acid] | 5090 | 
2 | COC(=O)c1cccc(-c2ccc(CC[C@@H]3C[C@H]3C(=O)O)cc2)c1 (racemic) [Example 130, Trans-2-(2-(3′-(methoxycarbonyl)-[1,1′-biphenyl]-4-yl)ethyl) cyclopropanecarboxylic acid] | 800 | 
3 | O=C(O)[C@@H]1C[C@H]1CCc1ccc(-c2cccc(-n3cccn3)c2)cc1 (racemic) [Example 128, Trans-2-(2-(3′-(1H-pyrazol-1-yl)-[1,1′-biphenyl]-4-yl)ethyl) cyclopropanecarboxylic acid] | 700 | 
4 | Cc1nc(-c2ccccc2)c(-c2ccc(CC[C@@H]3C[C@H]3C(=O)O)cc2)s1 (single isomer, unassigned) [Example 27, Trans-2-(4-(2-methyl-4-phenylthiazol-5-yl)phenethyl)cyclopropanecarboxylic acid] | 1230 | 
5 | CC1(C)Cc2c(F)cc(-c3ccc(OC[C@@H]4C[C@H]4C(=O)O)cc3)cc2O1 (racemic) [Example 21, Trans-2-((4-(4-fluoro-2,2-dimethyl-2,3-dihydrobenzofuran-6-yl)phenoxy)methyl) cyclopropanecarboxylic acid] |  | Not active
6 | CC(C)Oc1ccc(F)c(-c2ccc(OC[C@H]3C[C@H]3C(=O)O)cc2)c1 (single isomer, unassigned) [Example 7] | 2810 | 
7 | Cc1ccc(Oc2cc(F)c(F)c(-c3ccc(OCC4CC4C(=O)O)c(F)c3)c2)cc1F (single isomer, unassigned) [Example 108] | 360 | 
8 | O=C(O)[C@@H]1C[C@H]1COc1ccc(-c2cc(Oc3ccccc3)ccc2F)cc1F (single isomer, unassigned) [Example 10] | 80 | 
9 | O=C(O)[C@@H]1C[C@H]1COc1ccc(-c2cc(Oc3cc(F)cc(F)c3)ccc2F)cc1 (relative stereo) [Example 43, Trans-2-(((5′-(3,5-difluorophenoxy)-2′-fluoro-[1,1′-biphenyl]-4-yl)oxy)methyl)cyclopropanecarboxylic acid] | 280 | 
10 | CC(C)Oc1ccc(F)c(-c2ccc(OC[C@@H]3C[C@H]3C(=O)O)cc2)c1 (racemic) [Example 1, Trans-2-(((2′-fluoro-5′-isopropoxy-[1,1′-biphenyl]-4-yl)oxy)methyl) cyclopropanecarboxylic acid] | 370 | 
11 | CC(C)Oc1ccc(F)c(-c2ccc(CC[C@]3(F)C[C@H]3C(=O)O)cc2)c1 (racemic) [Example 39, Cis-2-fluoro-2-(2-(2′-fluoro-5′-isopropoxy-[1,1′-biphenyl]-4-yl)ethyl) cyclopropanecarboxylic acid] | 2020 | 
12 | CC(C)COc1cc(F)cc(-c2ccc(OC[C@@H]3C[C@H]3C(=O)O)cc2)c1 (racemic) [Example 72, Trans-2-(((3′-fluoro-5′-isobutoxy-[1,1′-biphenyl]-4-yl)oxy)methyl) cyclopropanecarboxylic acid] | 1550 | 
13 | O=C(O)[C@@H]1C[C@H]1COc1ccc(-c2cc(Oc3ccccc3)cnc2Cl)cc1 (racemic) [Example 110, Trans-2-((4-(2-chloro-5-phenoxypyridin-3-yl)phenoxy)methyl)cyclopropanecarboxylic acid] | 430 | 
14 | O=C(O)[C@@H]1C[C@H]1COc1ccc(-c2cc(Oc3ccc(F)c(F)c3)ccc2F)cc1 (racemic) [Example 91, Trans-2-(((5′-(3,4-difluorophenoxy)-2′-fluoro-[1,1′-biphenyl]-4-yl)oxy)methyl) cyclopropanecarboxylic acid] | 310 | 
15 | CC(C)Oc1cc(Cl)cc(-c2ccc(OC[C@H]3C[C@@H]3C(=O)O)c(F)c2)c1 (racemic) [Example 12, Trans-2-(((3′-chloro-3-fluoro-5′-isopropoxy-[1,1′-biphenyl]-4-yl)oxy)methyl) cyclopropanecarboxylic acid] | 310 | 
